Assay results: ChEMBL document CHEMBL4340509, “Synthesis and evaluation of novel GSK-3β inhibitors as multifunctional agents against Alzheimer's disease” (Eur J Med Chem, 2019)
Active and inactive are the calls of the source. No cut-off for these calls is given here.

Experiments:
[1] = Metal chelating activity assessed as compound-Zn2+ complex formation at 20 uM in presence of ZnCl2 after 30 mins by UV-visible spectrophotometric analysis
[2] = Metal chelating activity assessed as compound-Al3+ complex formation at 20 uM in the presence of AlCl3 after 30 mins by UV-visible spectrophotometric analysis
[3] = target: T1, Glycogen synthase kinase-3 beta (Homo sapiens, UniProt P49841); assay: Inhibition of GSK-3beta (unknown origin) using FAM-labeled peptide as substrate preincubated for 10 mins followed by substrate addition by caliper assay
Target sequence in this assay (P49841 whole entry): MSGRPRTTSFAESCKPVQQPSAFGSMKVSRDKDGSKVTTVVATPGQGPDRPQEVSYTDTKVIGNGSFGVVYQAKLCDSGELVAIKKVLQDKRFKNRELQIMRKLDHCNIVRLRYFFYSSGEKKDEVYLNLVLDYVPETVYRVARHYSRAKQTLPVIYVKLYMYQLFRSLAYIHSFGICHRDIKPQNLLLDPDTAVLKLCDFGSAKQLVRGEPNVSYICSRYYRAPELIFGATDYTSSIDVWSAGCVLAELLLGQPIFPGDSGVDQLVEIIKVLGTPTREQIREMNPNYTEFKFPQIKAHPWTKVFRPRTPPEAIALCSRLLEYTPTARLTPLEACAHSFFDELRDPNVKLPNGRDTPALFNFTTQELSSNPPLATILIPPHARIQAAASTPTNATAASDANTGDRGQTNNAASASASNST

[4] = Metal chelating activity assessed as compound-Cu2+ complex formation at 20 uM in presence of CuCl2 after 30 mins by UV-visible spectrophotometric analysis
[5] = target: T1, Glycogen synthase kinase-3 beta; assay: Inhibition of GSK-3beta (unknown origin) at 1 uM using FAM-labeled peptide as substrate preincubated for 10 mins followed by substrate addition by caliper assay relative to control
Target sequence in this assay (P49841 whole entry, looked up): as the sequence (P49841 whole entry) above

[6] = target: Amyloid-beta precursor protein (Homo sapiens) (UniProt P05067); assay: Disaggregation of HFIP-pretreated human amyloid beta (1 to 42) preformed fibrils at 40 uM after 24 hrs by ThT-based fluorometric method relative to control
SH-SY5Y [7] = assay: Neuroprotective activity against amyloid beta (1 to 42) (unknown origin)-induced cytotoxicity in SH-SY5Y cells assessed as cell viability at 2 uM measured after 24 hrs by MTT assay (reference value: 78%); format: functional; conditions: Homo sapiens
[8] = Metal chelating activity assessed as K+-compound complex formation at 20 uM in the presence of KCl after 30 mins by UV-vis spectrophotometric analysis
[9] = Metal chelating activity assessed as compound-Mg2+ complex formation at 20 uM in the presence of MgCl2 after 30 mins by UV-visible spectrophotometric analysis
[10] = Metal chelating activity assessed as compound-Ca2+ complex formation at 20 uM in the presence of CaCl2 after 30 mins by UV-visible spectrophotometric analysis
[11] = Metal chelating activity assessed as compound-Cu2+ complex formation by measuring shift in maximum absorption wavelength at 20 uM in presence of CuCl2 after 30 mins by UV-visible spectrophotometric analysis (reference value: 327 nanometer)
[12] = Metal chelating activity assessed as compound-Fe2+ complex formation at 20 uM in the presence of FeSO4 after 30 mins by UV-visible spectrophotometric analysis
[13] = Metal chelating activity assessed as Na+-compound complex formation at 20 uM in the presence of NaCl after 30 mins by UV-vis spectrophotometric analysis
[14] = Metal chelating activity assessed as compound-Cu2+ complex formation by measuring shift in maximum absorption wavelength at 20 uM in presence of CuCl2 after 30 mins by UV-visible spectrophotometric analysis (reference value: 326 nanometer)
[15] = Antioxidant activity assessed as ABTS radical scavenging activity incubated for 6 mins; format: functional
SH-SY5Y [16] = assay: Neuroprotective activity against H2O2-induced oxidative damage in human SH-SY5Y cells assessed as cell viability at 10 uM measured after 24 hrs by MTT assay relative to control; format: functional; conditions: read-out: Activity
PC-12 [17] = assay: Neuroprotective activity against H2O2-induced oxidative damage in rat PC12 cells assessed as cell viability at 10 uM measured after 24 hrs by MTT assay relative to control; format: functional; conditions: PC-12, 24 h, read-out: Activity
SH-SY5Y [18] = assay: Neuroprotective activity against H2O2-induced oxidative damage in human SH-SY5Y cells assessed as increase in cell viability measured after 24 hrs by MTT assay; format: functional, cell-based
[19] = target: T1, Glycogen synthase kinase-3 beta; assay: Inhibition of GSK3bbeta in human SH-SY5Y cells assessed as reduction in human amyloid beta (25 to 35) peptide-induced tau hyperphosphorylation at Ser396 residue preincubated for 1 hr followed by amyloid beta-stimulation and measured after 6 hrs by Western blot analysis; format: cell-based
Target sequence in this assay (P49841 whole entry, looked up): as the sequence (P49841 whole entry) above

SH-SY5Y [20] = assay: Cytotoxicity against human SH-SY5Y cells at 2 uM in the presence of CuCl2 measured after 24 hrs by MTT assay; format: cell-based
[21] = Inhibition of Cu2+-induced HFIP pretreated human amyloid beta (1 to 42) aggregation at 40 uM measured after 24 hrs by ThT-based fluorescence assay relative to control
[22] = target: T1, Glycogen synthase kinase-3 beta; assay: Inhibition of GSK3bbeta in human SH-SY5Y cells assessed as reduction in human amyloid beta (25 to 35) peptide-induced tau hyperphosphorylation at Ser396 residue at 25 uM preincubated for 1 hr followed by amyloid beta-stimulation and measured after 6 hrs by Western blot analysis relative to control; format: cell-based
Target sequence in this assay (P49841 whole entry, looked up): as the sequence (P49841 whole entry) above

[23] = Metal chelating activity assessed as compound-Cu2+ complex formation by measuring blue shift in maximum absorption at 20 uM in presence of CuCl2 after 30 mins by UV-visible spectrophotometric analysis (reference value: 244 nanometer)
PC-12 [24] = assay: Cytotoxicity against rat PC12 cells measured after 24 hrs by MTT assay; format: cell-based; conditions: PC-12, 24 h
[25] = Metal chelating activity assessed as inhibition of Cu(II)/ascorbate-induced ROS production by measuring fluorescence intensity at 100 uM measured at 20 secs interval for 1000 secs by fluorescence assay (reference value: 10 to 52)
[26] = Potency index, ratio of trolox IC50 to test compound IC50 for ABTS radical scavenging activity; format: functional
SH-SY5Y [27] = assay: Neuroprotective activity against Cu2+-mediated amyloid beta (1 to 42) (unknown origin)-induced cytotoxicity in human SH-SY5Y cells assessed as increase in cell viability at 2 uM measured after 24 hrs by MTT assay; format: functional, cell-based
[28] = Disaggregation of Cu2+ induced human HFIP-pretreated amyloid beta (1 to 42) preformed fibrils at 40 uM measured after 24 hrs by ThT-based fluorescence assay relative to control
[29] = target: Amyloid-beta precursor protein (Homo sapiens) (UniProt P05067); assay: Inhibition of human HFIP-pretreated amyloid beta (1 to 42) self aggregation at 40 uM after 24 hrs by ThT-based fluorometric method relative to control
SH-SY5Y [30] = assay: Cytotoxicity against human SH-SY5Y cells measured after 24 hrs by MTT assay; format: cell-based
[31] = Metal chelating activity assessed as compound-Al3+ complex formation by measuring blue shift in maximum absorption at 20 uM in the presence of AlCl3 after 30 mins by UV-visible spectrophotometric analysis (reference value: 407 nanometer)
[32] = Metal chelating activity assessed as compound-Cu2+ complex formation by measuring shift in maximum absorption wavelength at 20 uM in presence of CuCl2 after 30 mins by UV-visible spectrophotometric analysis (reference value: 311 nanometer)
[33] = Metal chelating activity assessed as compound-Cu2+ complex formation by measuring shift in maximum absorption wavelength at 20 uM in presence of CuCl2 after 30 mins by UV-visible spectrophotometric analysis (reference value: 338 nanometer)
[34] = target: T1, Glycogen synthase kinase-3 beta; assay: Inhibition of GSK3bbeta in human SH-SY5Y cells assessed as reduction in human amyloid beta (25 to 35) peptide-induced tau hyperphosphorylation at Ser396 residue at […] preincubated for 1 hr followed by amyloid beta-stimulation and measured after 6 hrs by Western blot analysis; format: cell-based
Target sequence in this assay (P49841 whole entry, looked up): as the sequence (P49841 whole entry) above

Amyloid-beta precursor protein (Homo sapiens), sequence (P05067 whole entry): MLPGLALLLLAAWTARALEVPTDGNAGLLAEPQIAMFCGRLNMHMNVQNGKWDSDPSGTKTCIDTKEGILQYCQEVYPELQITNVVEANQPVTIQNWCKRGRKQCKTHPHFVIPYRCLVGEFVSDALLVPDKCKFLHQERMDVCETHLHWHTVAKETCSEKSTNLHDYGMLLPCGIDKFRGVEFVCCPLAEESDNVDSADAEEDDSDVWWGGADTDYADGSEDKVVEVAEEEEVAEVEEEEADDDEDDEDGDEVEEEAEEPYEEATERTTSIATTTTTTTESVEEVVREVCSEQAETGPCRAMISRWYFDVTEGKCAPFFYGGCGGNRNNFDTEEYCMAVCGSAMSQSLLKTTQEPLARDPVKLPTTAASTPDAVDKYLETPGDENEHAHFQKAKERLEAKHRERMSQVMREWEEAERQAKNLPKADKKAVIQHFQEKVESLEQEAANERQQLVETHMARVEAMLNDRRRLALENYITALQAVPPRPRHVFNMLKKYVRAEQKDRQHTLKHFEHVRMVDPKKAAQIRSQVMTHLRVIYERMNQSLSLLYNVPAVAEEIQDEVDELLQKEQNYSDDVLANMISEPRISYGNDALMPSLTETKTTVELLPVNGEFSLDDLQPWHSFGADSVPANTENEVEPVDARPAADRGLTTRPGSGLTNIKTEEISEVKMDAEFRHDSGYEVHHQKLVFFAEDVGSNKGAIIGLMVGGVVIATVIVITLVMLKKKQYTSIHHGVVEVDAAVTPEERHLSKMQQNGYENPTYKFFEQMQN

Nc1ncc(-c2ccccc2)cc1NC(=O)c1ccnc(NC(=O)C2CC2)c1
Activity [1]: inactive | Activity [2]: inactive | IC50 [3]: 148 nM | Activity [4]: inactive | inhibition [5]: 98%

COc1cc(/C=C/C(=O)CC(=O)/C=C/c2ccc(O)c(OC)c2)ccc1O [CURCUMIN]
Activity [6]: 43% | viability at 2 µM (SH-SY5Y [7]; read-out: Activity): 88%

Nc1ncc(-c2ccc(F)cc2)cc1/N=C/c1ccnc(NC(=O)C2CC2)c1
IC50 [3]: 418 nM

Cc1ccc(-c2cnc(N)c(NCc3ccnc(NC(=O)C4CC4)c3)c2)cc1
Activity [8]: inactive | Activity [1]: inactive | Activity [2]: inactive | Activity [9]: inactive | Activity [10]: inactive | Activity [11]: 422 nm | inhibition [5]: 28% | Activity [12]: inactive | Activity [13]: inactive

Nc1ncc(-c2ccccc2)cc1NCc1ccnc(NC(=O)C2CC2)c1
Activity [8]: inactive | Activity [1]: inactive | Activity [2]: inactive | Activity [9]: inactive | Activity [10]: inactive | inhibition [5]: 27% | Activity [12]: inactive | Activity [14]: 422 nm | Activity [13]: inactive

Cc1c(C)c2c(c(C)c1O)CCC(C)(C(=O)O)O2 (stereo not drawn) [TROLOX]
IC50 [15]: 14300 nM | viability at 10 µM (SH-SY5Y [16]): 90% | viability at 10 µM (PC-12 [17]): 79%

Nc1ncc(-c2ccncc2)cc1/N=C/c1ccnc(NC(=O)C2CC2)c1
Activity [8]: inactive | Activity (SH-SY5Y [18]): Dose-dependent effect | IC50 [15]: 3440 nM | Activity [6]: inactive | Activity (SH-SY5Y [7]): inactive | inhibition [19]: Dose-dependent effect | Activity (SH-SY5Y [20]): Non-Toxic | viability at 10 µM (SH-SY5Y [16]): 92% | Activity [1]: inactive | inhibition [21]: 33.8% | Activity [9]: inactive | IC50 [3]: 38 nM | inhibition [22]: < 50% | Activity [23]: 241 nm | Activity [10]: inactive | IC50 (PC-12 [24]): 161000 nM | Flu intensity [25]: 33 to 54 | Ratio IC50 [26]: 2 to 4 | Activity (SH-SY5Y [27]): Active | Activity [12]: inactive | Activity [28]: 50.9% | inhibition [29]: inactive | viability at 10 µM (PC-12 [17]): 76.4% | IC50 (SH-SY5Y [30]): > 200000 nM | Activity [31]: 378 nm | Activity [13]: inactive

Cc1ccc(-c2cnc(N)c(NC(=O)c3ccnc(NC(=O)C4CC4)c3)c2)cc1
Activity [1]: inactive | Activity [2]: inactive | IC50 [3]: 127 nM | Activity [4]: inactive | inhibition [5]: 99%

Nc1ncc(-c2ccncc2)cc1NCc1ccnc(NC(=O)C2CC2)c1
Activity [8]: inactive | Activity [1]: inactive | Activity [2]: inactive | Activity [9]: inactive | Activity [10]: inactive | inhibition [5]: 27% | Activity [12]: inactive | Activity [13]: inactive

Nc1nccc(-c2cccc(F)c2)c1/N=C/c1ccnc(NC(=O)C2CC2)c1
IC50 [3]: 891 nM

Cc1csc(-c2cnc(N)c(/N=C/c3ccnc(NC(=O)C4CC4)c3)c2)c1
IC50 [3]: 315 nM

Nc1ncccc1/N=C/c1ccnc(NC(=O)C2CC2)c1
Activity [8]: inactive | Activity (SH-SY5Y [18]): Dose-dependent effect | IC50 [15]: 3880 nM | Activity [6]: inactive | Activity (SH-SY5Y [7]): inactive | inhibition [19]: Dose-dependent effect | Activity (SH-SY5Y [20]): Non-Toxic | viability at 10 µM (SH-SY5Y [16]): 92.1% | Activity [1]: inactive | Activity [2]: inactive | inhibition [21]: 24.3% | Activity [9]: inactive | IC50 [3]: 71 nM | inhibition [22]: < 50% | Activity [10]: inactive | IC50 (PC-12 [24]): 152000 nM | Activity [4]: inactive | Flu intensity [25]: 22 to 40 | Ratio IC50 [26]: 2 to 4 | Activity (SH-SY5Y [27]): Active | Activity [12]: inactive | Activity [28]: 42.5% | inhibition [29]: inactive | viability at 10 µM (PC-12 [17]): 72.6% | IC50 (SH-SY5Y [30]): > 200000 nM | Activity [13]: inactive

Nc1ncccc1NCc1ccnc(NC(=O)C2CC2)c1
Activity [8]: inactive | Activity [1]: inactive | Activity [2]: inactive | Activity [9]: inactive | Activity [32]: 402 nm | Activity [10]: inactive | inhibition [5]: 33% | Activity [12]: inactive | Activity [13]: inactive

Cc1csc(-c2cnc(N)c(NCc3ccnc(NC(=O)C4CC4)c3)c2)c1
Activity [8]: inactive | Activity [1]: inactive | Activity [2]: inactive | Activity [9]: inactive | Activity [33]: 440 nm | Activity [10]: inactive | inhibition [5]: 17% | Activity [12]: inactive | Activity [13]: inactive

Nc1ncccc1NC(=O)c1ccnc(NC(=O)C2CC2)c1
Activity [1]: inactive | Activity [2]: inactive | IC50 [3]: 629 nM | Activity [4]: inactive | inhibition [5]: 77%

Cc1csc(-c2cnc(N)c(NC(=O)c3ccnc(NC(=O)C4CC4)c3)c2)c1
Activity [1]: inactive | Activity [2]: inactive | IC50 [3]: 219 nM | Activity [4]: inactive | inhibition [5]: 102%

Nc1nccc(-c2ccc(F)cc2)c1/N=C/c1ccnc(NC(=O)C2CC2)c1
IC50 [3]: 1200 nM

[Cl-].[Li+]
inhibition [34]: Active

Nc1ncc(-c2ccncc2)cc1NC(=O)c1ccnc(NC(=O)C2CC2)c1
Activity [1]: inactive | Activity [2]: inactive | IC50 [3]: 199 nM | Activity [4]: inactive | inhibition [5]: 99%

Cc1ccc(-c2cnc(N)c(/N=C/c3ccnc(NC(=O)C4CC4)c3)c2)cc1
IC50 [3]: 372 nM

Oc1c(I)cc(Cl)c2cccnc12
inhibition [21]: 38.8% | Activity (SH-SY5Y [27]): Active | Activity [28]: 34.9%

Cc1ccc(-c2ccnc(N)c2/N=C/c2ccnc(NC(=O)C3CC3)c2)cc1
IC50 [3]: 1250 nM

Nc1nccc(-c2ccc(Cl)cc2)c1/N=C/c1ccnc(NC(=O)C2CC2)c1
IC50 [3]: > 2000 nM

Nc1ncc(-c2ccc(F)cc2)cc1NC(=O)c1ccnc(NC(=O)C2CC2)c1
Activity [1]: inactive | Activity [2]: inactive | IC50 [3]: 240 nM | Activity [4]: inactive | inhibition [5]: 95%

Nc1nccc(-c2ccccc2)c1/N=C/c1ccnc(NC(=O)C2CC2)c1
IC50 [3]: 633 nM
